Data on 21 molecules can be found in US6878713B2, “Generation triple-targeting, chiral, broad-spectrum antimicrobial 7-substituted piperidino-quinolone carboxylic acid derivatives, their preparation, compositions and use as medicaments” (Wockhardt Limited, priority 2001, dated 2005).

As a reminder, the melting point is the temperature, or range, at which the solid turns liquid. In the case of `CNC1CCN(c2c(F)c(N)c3c(=O)c(C(=O)O)cn(C4CC4)c3c2OC)CC1C` (stereo not drawn) [Compound 60, 5-Amino-1-cyclopropyl-6-fluoro-1,4-dihydro-8-methoxy-7-(4-methylamino-3-methyl-1-piperidinyl)-4-oxo-quinoline-3-carboxylic acid], the melting point was 228 to 230 °C (dec.).

Regarding `CCNC1CCN(c2c(F)c(N)c3c(=O)c(C(=O)O)cn(C4CC4)c3c2OC)CC1C` (stereo not drawn) [Compound 61, 5-Amino-1-cyclopropyl-6-fluoro-1,4-dihydro-8-methoxy-7-(4-ethylamino-3-methyl-1-piperidinyl)-4-oxo-quinoline-3-carboxylic acid], the melting point was 230 to 232 °C.

In the case of `COc1c(N2CCC(NC3CC3)C(C)C2)c(F)c(N)c2c(=O)c(C(=O)O)cn(C3CC3)c12` (stereo not drawn) [Compound 62, 5-Amino-1-cyclopropyl-6-fluoro-1,4-dihydro-8-methoxy-7-(4-cyclopropylamino-3-methyl-1-piperidinyl)-4-oxo-quinoline-3-carboxylic acid], the melting point was in the range of 218 to 220 °C.

Consider `COc1c(N2CCC(N(C)C)C(C)C2)c(F)c(N)c2c(=O)c(C(=O)O)cn(C3CC3)c12` (stereo not drawn) [Compound 63, 5-Amino-1-cyclopropyl-6-fluoro-1,4-dihydro-8-methoxy-7-(4-dimethylamino-3-methyl-1-piperidinyl)-4-oxo-quinoline-3-carboxylic acid], for which the melting point came to 210 °C.

For `COc1c(N2CCC(N)C(C)(C)C2)c(F)c(N)c2c(=O)c(C(=O)O)cn(C3CC3)c12` (stereo not drawn) [Compound 68, 5-Amino-1-cyclopropyl-6-fluoro-1,4-dihydro-8-methoxy-7-(4-amino-3,3-dimethyl-1-piperidinyl)-4-oxo-quinoline-3-carboxylic acid], the melting point stood at 205 °C.

Turning to `CNC1CCN(c2c(F)c(N)c3c(=O)c(C(=O)O)cn(C4CC4)c3c2OC)CC1(C)C` (stereo not drawn) [Compound 73, 5-Amino-1-cyclopropyl-6-fluoro-1,4-dihydro-8-methoxy-7-(4-methylamino-3,3-dimethyl-1-piperidinyl)-4-oxo-quinoline-3-carboxylic acid], the melting point is 250 °C (dec.).

Regarding `CCNC1CCN(c2c(F)c(N)c3c(=O)c(C(=O)O)cn(C4CC4)c3c2OC)CC1(C)C` (stereo not drawn) [Compound 74, 5-Amino-1-cyclopropyl-6-fluoro-1,4-dihydro-8-methoxy-7-(4-ethylamino-3,3-dimethyl-1-piperidinyl)-4-oxo-quinoline-3-carboxylic acid], the melting point was 205 °C (dec.).

On to `COc1c(N2CCC(N(C)C)C(C)(C)C2)c(F)c(N)c2c(=O)c(C(=O)O)cn(C3CC3)c12` (stereo not drawn) [Compound 76, 5-Amino-1-cyclopropyl-6-fluoro-1,4-dihydro-8-methoxy-7-(4-dimethylamino-3,3-dimethyl-1-piperidinyl)-4-oxo-quinoline-3-carboxylic acid], for which the melting point is 178 °C (dec.).

As to `CCC1(C)CN(c2c(F)c(N)c3c(=O)c(C(=O)O)cn(C4CC4)c3c2OC)CCC1N` (stereo not drawn) [Compound 77, 5-Amino-1-cyclopropyl-6-fluoro-1,4-dihydro-8-methoxy-7-(4-amino-3-ethyl-3-methyl-1-piperidinyl)-4-oxo-quinoline-3-carboxylic acid], the melting point is 210 °C (dec.).

In turn, `CCC1(C)CN(c2c(F)c(N)c3c(=O)c(C(=O)O)cn(C4CC4)c3c2OC)CCC1NC` (stereo not drawn) [Compound 78, 5-Amino-1-cyclopropyl-6-fluoro-1,4-dihydro-8-methoxy-7-(4-methylamino-3-ethyl-3-methyl-1-piperidinyl)-4-oxo-quinoline-3-carboxylic acid] yielded a melting point of 164 to 166 °C.

The molecule `CCC1(C)CN(c2c(F)c(N)c3c(=O)c(C(=O)O)cn(C4CC4)c3c2OC)CCC1NC1CC1` (stereo not drawn) [Compound 79, 5-Amino-1-cyclopropyl-6-fluoro-1,4-dihydro-8-methoxy-7-(4-cyclopropylamino-3-methyl-3-ethyl-1-piperidinyl)-4-oxo-quinoline-3-carboxylic acid] returned a melting point of 186 to 188 °C.

On to `CCC1(C)CN(c2c(F)c(N)c3c(=O)c(C(=O)O)cn(C4CC4)c3c2OC)CCC1N(C)C` (stereo not drawn) [Compound 80, 5-Amino-1-cyclopropyl-6-fluoro-1,4-dihydro-8-methoxy-7-(4-dimethylamino-3-methyl-3-ethyl-1-piperidinyl)-4-oxo-quinoline-3-carboxylic acid], for which the melting point fell in the range of 194 to 196 °C.

As for `CNC1C(C)CN(c2c(F)c(N)c3c(=O)c(C(=O)O)cn(C4CC4)c3c2OC)CC1C` (stereo not drawn) [Compound 83, 5-Amino-1-cyclopropyl-6-fluoro-1,4-dihydro-8-methoxy-7-(4-methylamino-3,5-dimethyl-1-piperidinyl)-4-oxo-quinoline-3-carboxylic acid], the melting point was 224 to 226 °C.

Consider `COc1c(N2CC(C)C(N)C(C)(C)C2)c(F)c(N)c2c(=O)c(C(=O)O)cn(C3CC3)c12` (stereo not drawn) [Compound 87, 5-Amino-1-cyclopropyl-6-fluoro-1,4-dihydro-8-methoxy-7-(4-amino-3,3,5-trimethyl-1-piperidinyl)-4-oxo-quinoline-3-carboxylic acid], for which the melting point is 248 to 252 °C.

`CNC1CCN(c2c(F)cc3c(=O)c(C(=O)O)cn(C4CC4)c3c2C)CC1C` (stereo not drawn) [Compound 113, 1-Cyclopropyl-6-fluoro-1,4-dihydro-8-methyl-7-(4-methylamino-3-methyl-1-piperidinyl)-4-oxo-quinoline-3-carboxylic acid]: the melting point lay in the range of 233 to 235 °C.

As for `CCNC1CCN(c2c(F)cc3c(=O)c(C(=O)O)cn(C4CC4)c3c2C)CC1(C)C` (stereo not drawn) [Compound 115, 1-Cyclopropyl-6-fluoro-1,4-dihydro-8-methyl-7-(4-ethylamino-3,3-dimethyl-1-piperidinyl)-4-oxo-quinoline-3-carboxylic acid], the melting point fell in the range of 201 to 203 °C.

As to `Cc1c(N2CCC(N(C)C)C(C)(C)C2)c(F)cc2c(=O)c(C(=O)O)cn(C3CC3)c12` (stereo not drawn) [Compound 116, 1-Cyclopropyl-6-fluoro-1,4-dihydro-8-methyl-7-(4-dimethylamino-3,3-dimethyl-1-piperidinyl)-4-oxo-quinoline-3-carboxylic acid], the melting point lay in the range of 209 to 210 °C.

On to `CCc1c(N2CCC(N)CC2)c(F)cc2c(=O)c(C(=O)O)cn(C3CC3)c12` [Compound 117, 1-Cyclopropyl-6-fluoro-8-ethyl-7-(4-amino-1-piperidinyl)-1,4-dihydro-4-oxo-quinoline-3-carboxylic acid], for which the melting point was in the range of 248 to 249 °C.

With `COc1c(N2CCC(O)C(C)C2)c(F)c(N)c2c(=O)c(C(=O)O)cn(C3CC3)c12` (stereo not drawn) [Compound 135, 5-Amino-1-cyclopropyl-6-fluoro-1,4-dihydro-8-methoxy-7-(4-hydroxy-3-methyl-1-piperidinyl)-4-oxo-quinoline-3-carboxylic acid], the melting point was in the range of 240 to 244 °C.

With `CCC1CN(c2c(F)cc3c(=O)c(C(=O)O)cn(C4CC4)c3c2OC)CCC1O` (stereo not drawn) [Compound 136, 1-Cyclopropyl-6-fluoro-1,4-dihydro-8-methoxy-7-(4-hydroxy-3-ethyl-1-piperidinyl)-4-oxo-quinoline-3-carboxylic acid], the melting point is 188 to 190 °C.

Molecule `CCC1CN(c2c(F)c(N)c3c(=O)c(C(=O)O)cn(C4CC4)c3c2OC)CCC1O` (stereo not drawn) [Compound 137, 5-Amino-1-cyclopropyl-6-fluoro-1,4-dihydro-8-methoxy-7-(4-hydroxy-3-ethyl-1-piperidinyl)-4-oxo-quinoline-3-carboxylic acid] displayed a melting point of 217 to 219 °C.
